This experiment concerns the target T1, aromatase (CYP19) (Homo sapiens, UniProt P11511).
T1 sequence (P11511 1-503): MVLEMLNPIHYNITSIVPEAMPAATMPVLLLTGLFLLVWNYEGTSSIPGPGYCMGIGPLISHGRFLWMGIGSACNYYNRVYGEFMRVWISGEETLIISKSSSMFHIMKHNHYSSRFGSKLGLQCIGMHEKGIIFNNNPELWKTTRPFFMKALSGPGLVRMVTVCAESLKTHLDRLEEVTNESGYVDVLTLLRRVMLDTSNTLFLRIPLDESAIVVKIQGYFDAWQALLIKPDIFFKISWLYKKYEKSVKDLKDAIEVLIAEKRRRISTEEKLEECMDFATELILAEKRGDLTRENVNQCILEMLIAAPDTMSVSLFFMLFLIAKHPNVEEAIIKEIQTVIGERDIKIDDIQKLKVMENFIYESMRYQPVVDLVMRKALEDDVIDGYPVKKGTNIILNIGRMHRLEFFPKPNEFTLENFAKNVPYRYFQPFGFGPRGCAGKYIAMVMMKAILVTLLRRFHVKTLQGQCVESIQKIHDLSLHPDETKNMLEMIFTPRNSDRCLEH
In kind it is cell-based.

Compound `C/C=C(\C)c1cc(O)c(C)c2c1Oc1cc(O)cc(C)c1C(=O)O2` [UNG, unguinol] registered an IC50 of 9.73 µM.
